Reference: patent publication US7951829B2, “Benzimidazole modulators of VR1” (Janssen Pharmaceutica NV, priority 2006, dated 2011)

Molecular target: T1, hVR1 (Homo sapiens, UniProt Q8NER1)
T1 construct: expressed in transfected cells; host or cells: HEK293
Assay: Human VR1 (hVR1) Functional Assay (FLIPR intracellular calcium, capsaicin challenge)
Type: cell-based
Details: capsaicin 0.030 μM, HEK293 cells expressing hVR1; for inhibition at 1 µM: test concentration 1 μM

T1 sequence (Q8NER1 whole entry): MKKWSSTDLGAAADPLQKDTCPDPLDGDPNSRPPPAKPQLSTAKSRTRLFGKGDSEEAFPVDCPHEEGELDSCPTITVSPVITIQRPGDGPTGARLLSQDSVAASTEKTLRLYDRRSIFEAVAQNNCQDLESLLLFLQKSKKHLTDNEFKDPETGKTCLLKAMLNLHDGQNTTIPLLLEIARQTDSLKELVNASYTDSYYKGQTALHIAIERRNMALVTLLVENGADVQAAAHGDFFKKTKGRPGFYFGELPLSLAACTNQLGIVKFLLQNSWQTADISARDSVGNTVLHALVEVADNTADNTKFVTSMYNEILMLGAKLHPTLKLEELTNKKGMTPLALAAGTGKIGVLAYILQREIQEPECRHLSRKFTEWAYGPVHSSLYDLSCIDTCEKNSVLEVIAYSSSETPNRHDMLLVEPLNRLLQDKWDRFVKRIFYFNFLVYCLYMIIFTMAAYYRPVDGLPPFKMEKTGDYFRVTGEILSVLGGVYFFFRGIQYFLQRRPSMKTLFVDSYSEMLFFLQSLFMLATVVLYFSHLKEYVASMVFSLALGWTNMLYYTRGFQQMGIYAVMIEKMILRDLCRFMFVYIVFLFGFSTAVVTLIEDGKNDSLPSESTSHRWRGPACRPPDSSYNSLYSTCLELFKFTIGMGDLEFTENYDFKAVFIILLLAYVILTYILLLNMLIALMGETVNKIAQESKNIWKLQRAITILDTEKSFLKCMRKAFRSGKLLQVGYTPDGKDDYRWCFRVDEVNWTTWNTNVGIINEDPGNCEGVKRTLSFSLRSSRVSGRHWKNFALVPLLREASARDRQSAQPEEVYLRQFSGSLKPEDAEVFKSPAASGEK

Row | SMILES | IC50 [nM] | inhibition at 1 µM [%]
1 | CC(=O)c1ccccc1-c1cc2nc(/C=C/c3ccc(C(F)(F)F)cc3)[nH]c2cc1F [Cpd 62, (E)-1-(2-{6-fluoro-2-[2-(4-trifluoromethyl-phenyl)-vinyl]-1H-benzimidazol-5-yl}-phenyl)-ethanone] | 200 | 100
2 | Oc1cccc(-c2cc3nc(/C=C/c4ccc(C(F)(F)F)cc4)[nH]c3cc2F)c1 [Cpd 60, (E)-3-{6-fluoro-2-[2-(4-trifluoromethyl-phenyl)-vinyl]-1H-benzimidazol-5-yl}-phenol] | – | 7
3 | CS(=O)(=O)Nc1ccccc1-c1ccc2[nH]c(/C=C/c3ccc(OCC(F)(F)C(F)(F)F)cc3)nc2c1 [Cpd 101, (E)-N-[2-(2-{2-[4-(2,2,3,3,3-pentafluoro-propoxy)-phenyl]-vinyl}-1H-benzimidazol-5-yl)-phenyl]-methanesulfonamide] | > 500 | –
4 | OCc1ccccc1-c1cc2nc(/C=C/c3ccc(C(F)(F)F)cc3)[nH]c2cc1F [Cpd 61, (E)-(2-{6-fluoro-2-[2-(4-trifluoromethyl-phenyl)-vinyl]-1H-benzimidazol-5-yl}-phenyl)-methanol] | 75 | 100
5 | OCc1ccccc1-c1cc2nc(/C=C/c3ccc(C(F)(F)F)cc3)[nH]c2cc1Cl [Cpd 66, (E)-(2-{6-chloro-2-[2-(4-trifluoromethyl-phenyl)-vinyl]-1H-benzimidazol-5-yl}-phenyl)-methanol] | 48 | 98
6 | COC(=O)Nc1ccccc1-c1ccc2[nH]c(/C=C/c3ccc(C(F)(F)F)cc3)nc2c1 [Cpd 462, (E)-(2-{2-[2-(4-trifluoromethyl-phenyl)-vinyl]-1H-benzimidazol-5-yl}-phenyl)-carbamic acid methyl ester] | 97 | 98
7 | NS(=O)(=O)c1ccccc1-c1ccc2[nH]c(/C=C/c3ccccc3C(F)(F)F)nc2c1 [Cpd 364, (E)-2-{2-[2-(2-trifluoromethyl-phenyl)-vinyl]-1H-benzimidazol-5-yl}-benzenesulfonamide] | 65 | 97
8 | NS(=O)(=O)Nc1ccccc1-c1ccc2[nH]c(/C=C/c3ccc(C(F)(F)F)cc3)nc2c1 [Cpd 470, (E)-5-(2-aminosulfonylamino-phenyl)-2-[2-(4-trifluoromethyl-phenyl)-vinyl]-1H-benzimidazole] | 45 | 97
9 | CC(C)(C)OC(=O)Nc1ccccc1-c1ccc2[nH]c(/C=C/c3ccc(C(F)(F)F)cc3)nc2c1 [Cpd 479, (E)-(2-{2-[2-(4-trifluoromethyl-phenyl)-vinyl]-1H-benzimidazol-5-yl}-phenyl)-carbamic acid tert-butyl ester] | – | 12
10 | NS(=O)(=O)c1ccccc1-c1ccc2[nH]c(CCc3ccc(F)cc3C(F)(F)F)nc2c1 [Cpd 404, 2-{2-[2-(4-fluoro-2-trifluoromethyl-phenyl)-ethyl]-1H-benzimidazol-5-yl}-benzenesulfonamide] | 47 | 94
11 | NS(=O)(=O)c1ccccc1-c1ccc2[nH]c(CCc3ccccc3Cl)nc2c1 [Cpd 402, 2-{2-[2-(2-chloro-phenyl)-ethyl]-1H-benzimidazol-5-yl}-benzenesulfonamide] | 38 | 93
12 | CNS(=O)(=O)c1ccccc1-c1ccc2[nH]c(/C=C/c3c(F)cccc3Cl)nc2c1 [Cpd 336, (E)-2-{2-[2-(2-chloro-6-fluoro-phenyl)-vinyl]-1H-benzimidazol-5-yl}-N-methyl-benzenesulfonamide] | 240 | 89
13 | CC(C)(C)c1ccc(/C=C/c2nc3cc(-c4ccccc4C(N)=O)c(C(F)(F)F)cc3[nH]2)cc1 [Cpd 53, (E)-2-{2-[2-(4-tert-butyl-phenyl)-vinyl]-6-trifluoromethyl-1H-benzimidazol-5-yl}-benzamide] | 47 | 98
14 | Oc1ccccc1-c1cc2nc(/C=C/c3ccc(C(F)(F)F)cc3)[nH]c2cc1F [Cpd 59, (E)-2-{6-fluoro-2-[2-(4-trifluoromethyl-phenyl)-vinyl]-1H-benzimidazol-5-yl}-phenol] | 440 | 80
15 | NC(=O)c1ccccc1-c1ccc2[nH]c(/C=C/c3ccc(OC(F)(F)F)cc3)nc2c1 [Cpd 19, (E)-2-{2-[2-(4-trifluoromethoxy-phenyl)-vinyl]-1H-benzimidazol-5-yl}-benzamide] | – | 32
16 | CNCc1ccccc1-c1ccc2[nH]c(/C=C/c3ccc(C(F)(F)F)cc3)nc2c1 [Cpd 485, (E)-methyl-(2-{2-[2-(4-trifluoromethyl-phenyl)-vinyl]-1H-benzimidazol-5-yl}-benzyl)-amine] | > 500 | –
17 | CNS(=O)(=O)c1ccccc1-c1ccc2[nH]c(/C=C/c3ccc(C(C)=O)cc3)nc2c1 [Cpd 456, (E)-2-{2-[2-(4-acetyl-phenyl)-vinyl]-1H-benzimidazol-5-yl}-N-methyl-benzenesulfonamide] | 45 | 100
18 | CS(=O)(=O)Nc1ccccc1-c1ccc2[nH]c(/C=C/c3ccc(F)c(Br)c3)nc2c1 [Cpd 409, (E)-N-(2-{2-[2-(3-bromo-4-fluoro-phenyl)-vinyl]-1H-benzimidazol-5-yl}-phenyl)-methanesulfonamide] | – | 43
19 | CC(C)(C)C(=O)Nc1ccccc1-c1ccc2[nH]c(/C=C/c3ccc(C(F)(F)F)cc3)nc2c1 [Cpd 460, (E)-2,2-dimethyl-N-(2-{2-[2-(4-trifluoromethyl-phenyl)-vinyl]-1H-benzimidazol-5-yl}-phenyl)-propionamide] | – | 21
20 | CNS(=O)(=O)c1ccccc1-c1ccc2[nH]c(/C=C/c3cc(C(F)(F)F)ccc3C(F)(F)F)nc2c1 [Cpd 334, (E)-2-{2-[2-(2,5-bis-trifluoromethyl-phenyl)-vinyl]-1H-benzimidazol-5-yl}-N-methyl-benzenesulfonamide] | 178 | 94
21 | CC(=O)Nc1cccc(-c2ccc3[nH]c(/C=C/c4ccc(F)c(F)c4)nc3c2)c1 [Cpd 25, (E)-N-(3-{2-[2-(3,4-difluoro-phenyl)-vinyl]-1H-benzimidazol-5-yl}-phenyl)-acetamide] | – | 4
22 | Oc1ccccc1-c1cc2nc(/C=C/c3ccc(C(F)(F)F)cc3)[nH]c2cc1Cl [Cpd 68, (E)-2-{6-chloro-2-[2-(4-trifluoromethyl-phenyl)-vinyl]-1H-benzimidazol-5-yl}-phenol] | 329 | –
23 | NC(=O)c1ccccc1-c1ccc2[nH]c(/C=C/c3ccc(C(F)(F)F)cc3)nc2c1 [Cpd 13, (E)-2-{2-[2-(4-trifluoromethyl-phenyl)-vinyl]-1H-benzimidazol-5-yl}-benzamide] | 310 | 82
24 | CC(C)(O)c1ccccc1-c1ccc2[nH]c(/C=C/c3ccc(S(C)(=O)=O)cc3)nc2c1 [Cpd 84, (E)-2-(2-{2-[2-(4-methanesulfonyl-phenyl)-vinyl]-1H-benzimidazol-5-yl}-phenyl)-propan-2-ol] | 40 | 100

Second part, the compound after the results:

Row | IC50 [nM] | inhibition at 1 µM [%] | SMILES
25 | 24 | 101 | CNS(=O)(=O)c1ccccc1-c1ccc2[nH]c(/C=C/c3cccc(OC(F)(F)F)c3)nc2c1 [Cpd 344, (E)-N-methyl-2-{2-[2-(3-trifluoromethoxy-phenyl)-vinyl]-1H-benzimidazol-5-yl}-benzenesulfonamide]
26 | 6 | 98 | NS(=O)(=O)c1ccccc1-c1ccc2[nH]c(CCc3cccc(F)c3F)nc2c1 [Cpd 394, 2-{2-[2-(2,3-difluoro-phenyl)-ethyl]-1H-benzimidazol-5-yl}-benzenesulfonamide]
27 | 6 | 99 | CNS(=O)(=O)c1ccccc1-c1ccc2[nH]c(/C=C/c3ccc(SC(F)(F)F)cc3)nc2c1 [Cpd 341, (E)-N-methyl-2-{2-[2-(4-trifluoromethylsulfanyl-phenyl)-vinyl]-1H-benzimidazol-5-yl}-benzenesulfonamide]
28 | 8 | 97 | CC(C)(O)c1ccccc1-c1ccc2[nH]c(/C=C/c3ccccc3)nc2c1 [Cpd 468, (E)-2-[2-(2-styryl-1H-benzimidazol-5-yl)-phenyl]-propan-2-ol]
29 | 20 | 95 | NS(=O)(=O)c1ccccc1-c1ccc2[nH]c(CCc3cccc(C(F)(F)F)c3F)nc2c1 [Cpd 405, 2-{2-[2-(2-fluoro-3-trifluoromethyl-phenyl)-ethyl]-1H-benzimidazol-5-yl}-benzenesulfonamide]
30 | 18 | 100 | CNS(=O)(=O)c1ccccc1-c1ccc2[nH]c(/C=C/c3ccc(F)c(Cl)c3)nc2c1 [Cpd 321, (E)-2-{2-[2-(3-chloro-4-fluoro-phenyl)-vinyl]-1H-benzimidazol-5-yl}-N-methyl-benzenesulfonamide]
31 | 35 | 99 | CNS(=O)(=O)c1ccccc1-c1ccc2[nH]c(/C=C/c3cc(F)cc(F)c3)nc2c1 [Cpd 328, (E)-2-{2-[2-(3,5-difluoro-phenyl)-vinyl]-1H-benzimidazol-5-yl}-N-methyl-benzenesulfonamide]
32 | 9 | 99 | NS(=O)(=O)c1ccccc1-c1ccc2[nH]c(/C=C/c3ccc(F)c(F)c3)nc2c1 [Cpd 358, (E)-2-{2-[2-(3,4-difluoro-phenyl)-vinyl]-1H-benzimidazol-5-yl}-benzenesulfonamide]
33 | 14 | 96 | CNS(=O)(=O)c1ccccc1-c1ccc2[nH]c(/C=C/c3ccc(Cl)cc3Cl)nc2c1 [Cpd 337, (E)-2-{2-[2-(2,4-dichloro-phenyl)-vinyl]-1H-benzimidazol-5-yl}-N-methyl-benzenesulfonamide]
34 | 7 | 100 | NS(=O)(=O)c1ccccc1-c1ccc2[nH]c(/C=C/c3ccc(Cl)cc3F)nc2c1 [Cpd 428, (E)-2-{2-[2-(4-chloro-2-fluoro-phenyl)-vinyl]-1H-benzimidazol-5-yl}-benzenesulfonamide]
35 | 9 | 100 | CC(C)(O)c1ccccc1-c1ccc2[nH]c(/C=C/c3ccc4ncccc4c3)nc2c1 [Cpd 449, (E)-2-{2-[2-(2-quinolin-6-yl-vinyl)-1H-benzimidazol-5-yl]-phenyl}-propan-2-ol]
